In patent US20260234115A1, “LIPID COMPOUNDS, COMPOSITIONS, AND USES THEREOF” (Liberate Bio, Inc., priority 2023, published 2026):
Marks after values point to notes of the source that are not given here. One block for each molecule: values may come before it.

Tests used:
[1] = tested on: NHP organs; assay: In vivo activity screening in non-human primates: mean normalized UMI counts of barcoded mRNA in tissues after IV infusion of pooled F2 LNPs (Table 7, FIG. 8-11); parameters: species or system cynomolgus monkeys (Macaca fascicularis); settings: cynomolgus monkey, in vivo, iv
Protocol: Non-human primate (NIIP) biodistribution studies were performed in cynomolgus monkeys (e.g., Macaca fascicularis), aged 4-6 years. Animals were premedicated with dexamethasone, famotidine and diphenhydramine (at 1, 0.5 and 5 mg/kg, respectively) −2 and −1 day prior to test material dosing. LNP formulations (prepared in Formulation F2 from Example 1) were prepared with ionizable lipids so that each LNP formulation encapsulates one or more mRNAs with predetermined unique barcode sequences as their cargo. LNPs in PBS, identified by their unique barcoded mRNA cargo, are then pooled together at predetermined ratios. To evaluate LNP biodistribution into tissues upon systemic administration, NHPs received the dose administration by single intravenous infusion via peripheral vein (cephalic, saphenous, or another available) for 30 minutes with LNP dosing material (individual or pooled) in PBS at different total dose (0.5-1 mg/kg) levels.
At predetermined time points (4-6 hours after pooled test material administration), animals were sacrificed by exsanguination via the femoral artery after the intravenous injection of ketamine (10 mg/kg) and Euthasol® (0.25 mL/kg). Then, all animals underwent whole-body perfusion with PBS prior to tissue collection. 20-25 mg samples for biodistribution analysis were collected from all treatment group animals and then placed in sample tubes containing RNALater™ solution. All tissue samples were stored at room temperature for 24 hours, then the supernatants were removed, and samples were frozen.
To determine the unique LNPs distributed in the tissues, samples were homogenized by a tissue homogenizer (e.g., TissueLyser). Total RNA from the tissue homogenates were extracted by standard methods. Then, normalized amounts of RNA were sequenced using a targeted RNA sequencing approach with unique molecular identifiers (UMI) to ensure accurate RNA molecule counting. For each tissue, the resulting RNA molecule counts were normalized by pooled test article RNA counts. The results were analyzed using the internal bioinformatics pipeline.
LNPs comprising MC3 used as a control and for cross-mouse comparison. Dose is in mg/kg; LC is Lipid Compound according to Table 1.
Screening results for NHP Group 1 (spleen, femur, and muscle) are shown in FIG. 8A, FIG. 8B, and FIG. 8C.

[2] = tested on: mouse organs; assay: In vivo activity screening in mice: organ mean total flux (p/s) of luciferase activity after injection of F2 LNP pools (Table 6, FIG. 7A-7C); settings: luciferase mRNA
In short: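 C57BL/6J mice given one tail-vein injection of pooled Formulation F2 LNPs carrying firefly luciferase mRNA (0.25-3 mg/kg) in PBS. At 4-6 h, s.c. D-luciferin given; organs imaged ex vivo by IVIS within 10-15 min, after saline cardiac perfusion. Mean total flux (p/s) per organ ROI.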

[3] = Dynamic light scattering: LNP particle size and PDI; format: physicochemical; settings: for PDI N/P:6 / Size (nm) N/P:6: LNP
In short: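 The LNPs were made by microfluidic mixing of the lipids in ethanol with mRNA in pH 4.0 citrate, then dialyzed into PBS pH 7.4. They were diluted in PBS pH 7.4, and particle size and PDI were measured by dynamic light scattering.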

[4] = Plate-based fluorescence (RiboGreen) assay: nucleic acid cargo content and encapsulation efficiency of LNPs; format: physicochemical; settings: for EE (%) N/P:6: LNP
In short: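 LNPs made by microfluidic mixing of ethanolic lipids with mRNA in pH 4.0 citrate, dialyzed into PBS pH 7.4. Cargo quantified by RiboGreen fluorescence against a standard curve: Triton-lysed samples give total, TE-only samples give free cargo; encapsulation efficiency from their ratio.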

[5] = LNP compositions for in vivo mouse study, four formulations (F1-F4) pooled, or pools of four compounds

- Mean normalized UMI counts (×10^4) Bone Marrow [1]: 233.0 ×10^4
- Mean normalized UMI counts (×10^4) Brain [1]: 72.8 ×10^4
- Mean normalized UMI counts (×10^4) Heart [1]: 115.8 ×10^4
- Mean normalized UMI counts (×10^4) Kidney [1]: 153.6 ×10^4
- Mean normalized UMI counts (×10^4) Liver [1]: 108.2 ×10^4
- Mean normalized UMI counts (×10^4) Lung [1]: 139.5 ×10^4
- Mean normalized UMI counts (×10^4) Muscle [1]: 142.7 ×10^4
- Mean normalized UMI counts (×10^4) Pancreas [1]: 89.4 ×10^4
- Mean normalized UMI counts (×10^4) Spleen [1]: 207.6 ×10^4
SMILES: CCCCC/C=C\CCOC(=O)CCCCC(=O)OCC(COC(=O)CCCCC(=O)OCC/C=C\CCCCC)(COC(=O)CCC(CCCCCC)OC(=O)NCCN1CCCC1)COC(=O)C12CC3CC(CC(C3)C1)C2 (centres unmarked) [Compound 63, O6-[2-(adamantane-1-carbonyloxymethyl)-2-[[6-[(Z)-non-3-enoxy]-6-oxo-hexanoyl]oxymethyl]-3-[4-(2-pyrrolidin-1-ylethylcarbamoyloxy)decanoyloxy]propyl]O1-[(Z)-non-3-enyl]hexanedioate]
- Organ Mean Total Flux Femur ([2]; Mouse 9, dose 0.5 mg/kg): 10.4 p/s (×10^6)
- Organ Mean Total Flux Heart ([2]; Mouse 9, dose 0.5 mg/kg): 1.9 p/s (×10^6)
- Organ Mean Total Flux Kidney ([2]; Mouse 9, dose 0.5 mg/kg): 2.4 p/s (×10^6)
- Organ Mean Total Flux Liver ([2]; Mouse 9, dose 0.5 mg/kg): 351.7 p/s (×10^6)
- Organ Mean Total Flux Lung ([2]; Mouse 9, dose 0.5 mg/kg): 37.3 p/s (×10^6)
- Organ Mean Total Flux Muscle ([2]; Mouse 9, dose 0.5 mg/kg): 37.4 p/s (×10^6)
- Organ Mean Total Flux Pancreas ([2]; Mouse 9, dose 0.5 mg/kg): 15.8 p/s (×10^6)
- Organ Mean Total Flux Spleen ([2]; Mouse 9, dose 0.5 mg/kg): 40.7 p/s (×10^6)

SMILES: CCCCC/C=C\CCOC(=O)CCCCCC(=O)OCC(COC(=O)CCCCCC(=O)OCC/C=C\CCCCC)(COC(=O)CCC(CCCCCC)OC(=O)NCCN1CCCC1)COC(=O)CCC(OCCCCCCCC)OCCCCCCCC (centres unmarked) [Compound 9, O7-[2-(4,4-dioctoxybutanoyloxymethyl)-2-[[7-[(Z)-non-3-enoxy]-7-oxo-heptanoyl]oxymethyl]-3-[4-(2-pyrrolidin-1ylethylcarbamoyloxy)decanoyloxy]propyl]O1-[(Z)-non-3-enyl]heptanedioate]
- Particle Size (nm) ([3]; LNP compositions for in vivo mouse study, four formulations (F1-F4) of the lipid compound pooled, or pools of four compounds (sixteen compositions)): 79 nm
- PDI [3, 5]: 0.07
- PDI N/P:6 ([3]; Formulation F1, N/P 6): 0.07
- Size (nm) N/P:6 ([3]; Formulation F1, N/P 6): 68 ± 2 nm
- PDI N/P:6 ([3]; Formulation F2, N/P 6): 0.03
- Size (nm) N/P:6 ([3]; Formulation F2, N/P 6): 76 ± 1 nm
- PDI N/P:6 ([3]; Formulation F3, N/P 6): 0.03
- Size (nm) N/P:6 ([3]; Formulation F3, N/P 6): 92 ± 2 nm
- PDI N/P:6 ([3]; Formulation F4, N/P 6): 0.13
- Size (nm) N/P:6 ([3]; Formulation F4, N/P 6): 63 ± 1 nm
- EE % [4, 5]: 97%
- mRNA Content [4, 5]: 102 µg/mL
- EE (%) N/P:6 ([4]; Formulation F1, N/P 6): 100%
- EE (%) N/P:6 ([4]; Formulation F2, N/P 6): 100%
- EE (%) N/P:6 ([4]; Formulation F3, N/P 6): 99%
- EE (%) N/P:6 ([4]; Formulation F4, N/P 6): 99%
- Organ Mean Total Flux Femur ([2]; Mouse 1, dose 0.3 mg/kg): 7.6 p/s (×10^6)
- Organ Mean Total Flux Heart ([2]; Mouse 1, dose 0.3 mg/kg): 1.4 p/s (×10^6)
- Organ Mean Total Flux Kidney ([2]; Mouse 1, dose 0.3 mg/kg): 3.4 p/s (×10^6)
- Organ Mean Total Flux Liver ([2]; Mouse 1, dose 0.3 mg/kg): 3583 p/s (×10^6)
- Organ Mean Total Flux Lung ([2]; Mouse 1, dose 0.3 mg/kg): 29.8 p/s (×10^6)
- Organ Mean Total Flux Muscle ([2]; Mouse 1, dose 0.3 mg/kg): 8.3 p/s (×10^6)
- Organ Mean Total Flux Pancreas ([2]; Mouse 1, dose 0.3 mg/kg): 6.7 p/s (×10^6)
- Organ Mean Total Flux Spleen ([2]; Mouse 1, dose 0.3 mg/kg): 32.5 p/s (×10^6)
